The values below come from patent US9625466B2, “Signal amplification methods for the imaging of protein synthesis and neurotransmitter transport” (CORNELL UNIVERSITY, priority 2011, dated 2017).

In assay [1] the target is T1, ternary complex (Escherichia coli, UniProt P0CE48).
T1 construct: 6-His tag followed by TEV protease site (N); made in house; host or cells: E. coli (bacterial expression vector pPROEX-Ht-b)
Briefly: Equilibrium titration of nucleotide into Cy3-labeled Phe-tRNAPhe with saturating EF-Tu. It counts as binding, E. coli. The following applies: for RF Increase (%): Cy3 relative fluorescence increase at saturation, nucleotide titrated. The source says: Initial experiments focused on the molecular determinants of ternary complex formation in vitro using E. coli EF-Tu and tRNA^Phe. […] Depending on the solution conditions of the experiment, the formation of ternary complex can be detected as either a rise or fall in fluorescence intensity depending strongly on the solution conditions of the Cy3 fluorophore linked to tRNA^Phe. Other tRNA species (e.g., Cy3-labeled tRNA^Lys) undergo similar changes in fluorescence intensity.
Fluorescence experiments were performed using a Photon Technology International fluorescence meter with a 550 nm high pass filter on the emission side. All samples were analyzed in a 3 mL quartz cuvette, with a stir bar, maintained at 23° C. […] Fluorescence intensity was measured by exciting Cy3 labeled tRNA^Phe with 532 nm light and recording emission intensities at 565 nm. The sample was allowed to mix for 1 minute after each subsequent addition of reagent before data acquisition.
[formula] (Abrahamson 1985). Values of Kd were obtained by performing a nonlinear least squares fit of the data from fluorescence experiments to equation 5 in Matlab (R2011a). The best-fit values are reported with asymptotic 95% confidence intervals.
To assess the affinity and nature of GTP's interactions with ternary complex, analogous titration experiments were carried out in which GTP was added to a solution of 5 nM Phe-tRNA^Phe (Cy3-acp3U47) in the presence of saturating concentrations of EF-Tu (40 times IQ). […] The non-hydrolysable analogs each saturated at a relative fluorescence value well below 30%, illustrating EF-Tu's sensitivity to the position of the gamma phosphate.

Assay [2] deals with T1, ternary complex. As to the kind of experiment: Functional drug assay: dissociation of pre-formed fluorescent ternary complex. The format is biochemical, E. coli. Conditions: for kapp,2 apparent rate of ternary complex dissociation: compound added to pre-formed ternary complex (400 nM EF-Tu/EF-Ts, 5 nM Cy3 Phe-tRNAPhe, 10 μM GTP), GDP 100 μM. How it is done:
After ternary complex was formed, drug was added to a final concentration of 1 μM. Decay curves were fit using non-linear least squares method as previously mentioned.
To test this hypothesis, ternary complex was formed at low, saturating concentrations of GTP (10 μM). […] To the formed complex, 100 μM GDP was then added and the rate of ternary complex dissociation was followed as a function of time.
To illustrate the dynamic equilibrium that exists between ternary complex and its constituents, EF-Tu-targeting drugs were delivered to pre-formed ternary complex in the same manner as GDP described above.

Another assay concerns the target EF-Tu (Escherichia coli, UniProt P0CE47). Conditions: cited from earlier work.
Assay [3] concerns Phe-tRNA^Phe. The following applies: 4° C., pH 7.4; cited from earlier work.
Assay [4] concerns Phe-tRNA^Phe. The following applies: for RF Increase (%): Cy3 relative fluorescence increase on ternary complex formation, EF-Tu titrated.
Assay [5] has as its system Phe-tRNA^Phe.
[6] abbreviates: 5 nM Phe-tRNAPhe (Cy3-acp3U47), saturating EF-Tu (400 nM EF-Tu/EF-Ts), read-out: Kd (apparent affinity of nucleotide for ternary complex).

Values joined by “and” are separate entries in the source; they are usually repeats but may differ in a detail not shown here. Identical values can stand only once. Like-named read-outs stand apart in the source and are kept apart here. Marks after values point to notes of the source that are not given here.

For `Nc1nc2c(ncn2[C@@H]2O[C@H](COP(=O)(O)OP(=O)(O)NP(=O)(O)O)[C@@H](O)[C@H]2O)c(=O)[nH]1` [GDPNP, guanylyl-imino-diphosphate], the Kd at ternary complex [1] (setting [6]) turned out to be 9270 nM. For the same compound, the “RF Increase (%)” value on ternary complex [1] was found to be 7.3%.

Regarding `Nc1nc2c(ncn2[C@@H]2O[C@H](COP(=O)(O)OP(=O)(O)O)[C@@H](O)[C@H]2O)c(=O)[nH]1` [GDP], the “kapp,2 apparent rate of ternary complex dissociation” value on ternary complex [2] is 0.3 s⁻¹ and 0.30 s⁻¹. Moreover, at EF-Tu (EF-Tu), the “affinity for GDP relative to GTP” value was 40 fold. For the same compound, the “dissociation rate of GDP from EF-Tu•GDP•EF-Ts” value on EF-Tu (Gromadski 2002) is 125 s⁻¹.

Take `Nc1nc2c(ncn2[C@@H]2O[C@H](COP(=O)(O)OP(=O)(O)OP(O)(O)=S)[C@@H](O)[C@H]2O)c(=O)[nH]1` [GDPγS, guanosine 5′[γ-thio]triphosphate]: on ternary complex [1], the Kd came out at 3670 nM and the “RF Increase (%)” value was found to be 5.5%.

Take `Nc1nc2c(ncn2[C@@H]2O[C@H](COP(=O)(O)OP(=O)(O)OP(=O)(O)O)[C@@H](O)[C@H]2O)c(=O)[nH]1` [GTP, guanosine nucleotide triphosphate]: the Kd was 696 nM on ternary complex [1] (setting [6]) and approximately 200 nM at ternary complex [1] (Example 2, saturating EF-Tu (~300 nM), read-out: affinity of GTP in the formation of ternary complex). In addition, the “RF Increase (%)” value at ternary complex [1] is 30%. For the same compound, the “kon of GTP for the complex (kon=koff/KD)” value at ternary complex [1] (model, from koff 0.3 s^−1 and KD) was approximately 1e+06 M⁻¹ s⁻¹.

Take `C=C(NC(=O)C(=C)NC(=O)c1csc(C2=N[C@@H]3c4csc(n4)[C@H]4NC(=O)c5csc(n5)[C@H]([C@](C)(O)[C@@H](C)O)NC(=O)[C@H]5CSC(=N5)/C(=C/C)NC(=O)[C@H]([C@@H](C)O)NC(=O)c5csc(n5)[C@]3(CC2)NC(=O)[C@H](C)NC(=O)C(=C)NC(=O)[C@H](C)NC(=O)[C@H]([C@@H](C)CC)N[C@@H]2C=Cc3c([C@H](C)O)cc(nc3[C@H]2O)C(=O)O[C@@H]4C)n1)C(N)=O` [Thiostrepton]: at ternary complex [2], the “kapp,2 apparent rate of ternary complex dissociation” value was 0 s⁻¹. The “disruption of the ternary complex” value on ternary complex [2] (thiostrepton added to pre-formed ternary complex (10 μM per FIG. 17)) is listed as “did not lead to disruption of the ternary complex”.

For “EF-Tu (GTP): elongation factor Tu from E. coli, GTP-bound form, added as EF-Tu/EF-Ts complex”, the “rate of association determined previously” value in the assay on Phe-tRNA^Phe [3] is 1.5e+06 M⁻¹ s⁻¹. Further, the entries for the “RF Increase (%)” value with Phe-tRNA^Phe [4] and in the assay with Phe-tRNA^Phe [4] (listed as EF-Tu) were 30% and “approximately 30%”, respectively. The Kd at Phe-tRNA^Phe [4] (read-out: Kd (apparent dissociation constant between EF-Tu•GTP and Phe-tRNAPhe), 5 nM Phe-tRNAPhe (Cy3-acp3U47), 10 μM GTP, 23° C., ± 95% CI) was 12.7 ± 1.1 nM; on Phe-tRNA^Phe [4] (read-out: Kd (apparent dissociation constant between EF-Tu•GTP and Phe-tRNAPhe), 5 nM Phe-tRNAPhe (Cy3-acp3U47), 10 μM GTP, 23° C., ± 95% CI, listed as EF-Tu•GTP), 12.6 nM; at Phe-tRNA^Phe [4] (read-out: Kd of EF-Tu's interaction with Phe-tRNAPhe, Example 2, saturating GTP (>10 μM)) it was not above 15 nM. This compound also came in with an association constant kon in the assay with Phe-tRNA^Phe [5] (EF-Tu and GTP (10 μM) added to 5 nM Cy3-labeled Phe-tRNAPhe) of 1.4e+06 M⁻¹ s⁻¹. The compound also registered a dissociation rate koff in the assay on Phe-tRNA^Phe [5] (fit of triplicate time course to equation 7) of 0.08 s⁻¹.

Consider Kirromycin, for which the “reduction of relative fluorescence” value at ternary complex [2] (1 μM added to pre-formed ternary complex) is approximately 20%. The “kapp,2 rate of GDP mediated dissociation in the presence of kirromycin” value on ternary complex [2] (1 μM kirromycin, then GDP) is recorded as 0.02* s^−1. For the same compound, the “dissociation of ternary complex by saturating GDP with kirromycin present” value at ternary complex [2] (1 μM kirromycin, then saturating GDP) is listed as “did not dissociate ternary complex in the time frame observed”.
